{"source": "patent US20260226071A1", "about": "“2, 4-DIANILINOPYRIMIDINE-BASED AURORA-A KINASE SELECTIVE DEGRADATION INDUCING COMPOUNDS” (UPPTHERA, INC., priority 2023, published 2026)", "key": {"Aurora kinase A (AURKA)": {"molecular_target": "T1, Aurora kinase A (AURKA) (Homo sapiens, UniProt O14965)", "T1 construct": "endogenous in cells; host or cells: HeLa LgBit (AURKA-HiBit KI), CRISPR/Cas9 knock-in at the endogenous AURKA locus", "T1 sequence (O14965 1-403)": "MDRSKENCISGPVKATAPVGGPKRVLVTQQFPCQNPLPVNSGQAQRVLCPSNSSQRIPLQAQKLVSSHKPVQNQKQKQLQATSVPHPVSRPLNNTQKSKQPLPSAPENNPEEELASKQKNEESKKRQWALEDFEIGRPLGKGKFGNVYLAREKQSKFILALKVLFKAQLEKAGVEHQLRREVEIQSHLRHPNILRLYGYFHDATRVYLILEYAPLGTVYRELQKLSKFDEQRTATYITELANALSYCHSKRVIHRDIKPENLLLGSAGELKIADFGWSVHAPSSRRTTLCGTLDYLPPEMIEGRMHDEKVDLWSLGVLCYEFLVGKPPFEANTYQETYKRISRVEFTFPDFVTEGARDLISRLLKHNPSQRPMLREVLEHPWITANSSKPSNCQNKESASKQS", "experiment": "Luciferase assay for AURKA in HeLa LgBit (AURKA-HiBit KI) cell line", "type": "cell-based", "conditions": "HeLa LgBit (AURKA-HiBit KI) cells, measured after 12 hours", "summary_of_the_method": "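Test compounds (10 nM or 100 nM) added to AURKA-HiBit knock-in HeLa LgBit cells that had been pre-loaded with Endurazine for 2 h following an 18 h culture at 3×10^4 cells. Endogenous AURKA-HiBit level followed by luminescence (470-480 nm), measured after 12 h.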"}, "NCI-H446 cell line": {"test_system": "NCI-H446 cell line", "experiment": "Cell viability assay for NCI-H446 cell line", "type": "cell-based", "conditions": "Homo sapiens, NCI-H446, 120 h; H446 cells, 5 days culture, EZ-Cytox; read-out: IC50 value (Level)", "summary_of_the_method": "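Viability was measured by absorbance at 450 nm after 4 h with EZ-Cytox, following 5-day exposure of NCI-H446 cells (RPMI 1640, 10% FBS, 37 °C, 5% CO2) to 3-fold serial dilutions from 1000 nM down to 0.15 nM, added 24 h post-seeding.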"}}, "note": "pIC50: −log10 of the molar value."}
{"smiles": "O=C1CCC(c2ccc(N3CCN(CCC4CCN(NC(=O)c5ccc(Nc6ncc(F)c(Nc7ccccc7)n6)cc5)CC4)CC3)cc2)C(=O)N1", "note": "(stereo not drawn) [Compound 58, N-(4-(2-(4-(4-(2,6-dioxopiperidin-3-yl)phenyl)piperazin-1-yl)ethyl)piperidin-1-yl)-4-((5-fluoro-4-(phenylamino)pyrimidin-2-yl)amino)benzamide]", "values": [{"measurement": "luminescence value (Level)", "setting": "Aurora kinase A (AURKA); 10 nM compound", "result": "A (A is <0.3)"}, {"measurement": "luminescence value (Level)", "setting": "Aurora kinase A (AURKA); 100 nM compound", "result": "A (A is <0.2)"}, {"measurement": "pIC50", "setting": "NCI-H446 cell line", "result": "> 7.30"}]}
{"smiles": "C[C@H](CN1CCN(c2ccc(C3CCC(=O)NC3=O)cc2)CC1)C1CCN(NC(=O)c2ccc(Nc3ncc(F)c(Nc4ccc(C(=O)Nc5ccccc5Cl)cc4)n3)cc2)CC1", "note": "(stereo partly drawn) [Compound 63, N-(2-chlorophenyl)-4-((2-((4-((4-((2S)-1-(4-(4-(2,6-dioxopiperidin-3-yl)phenyl)piperazin-1-yl)propan-2-yl)piperidin-1-yl)carbamoyl)phenyl)amino)-5-fluoropyrimidin-4-yl)amino)benzamide]", "values": [{"measurement": "luminescence value (Level)", "setting": "Aurora kinase A (AURKA); 10 nM compound", "result": "A (A is <0.3)"}, {"measurement": "luminescence value (Level)", "setting": "Aurora kinase A (AURKA); 100 nM compound", "result": "A (A is <0.2)"}, {"measurement": "pIC50", "setting": "NCI-H446 cell line", "result": "> 7.30"}]}
{"smiles": "O=C1CCC(c2ccc(N3CCN(CCN4CC(NC(=O)c5ccc(Nc6ncc(F)c(Nc7ccc(C(=O)Nc8ccccc8Cl)cc7)n6)cc5)C4)CC3)cc2)C(=O)N1", "note": "(stereo not drawn) [Compound 65, N-(2-chlorophenyl)-4-((2-((4-((1-(2-(4-(4-(2,6-dioxopiperidin-3-yl)phenyl)piperazin-1-yl)ethyl)azetidin-3-yl)carbamoyl)phenyl)amino)-5-fluoropyrimidin-4-yl)amino) benzamide]", "values": [{"measurement": "luminescence value (Level)", "setting": "Aurora kinase A (AURKA); 10 nM compound", "result": "B (B is 0.3 to 0.5)"}, {"measurement": "luminescence value (Level)", "setting": "Aurora kinase A (AURKA); 100 nM compound", "result": "A (A is <0.2)"}, {"measurement": "pIC50", "setting": "NCI-H446 cell line", "result": "7.00 to 7.30"}]}
{"smiles": "CN(CC1CCN(c2ccc(NC3CCC(=O)NC3=O)cc2F)CC1)[C@H]1CC[C@H](NC(=O)c2ccc(Nc3ncc(F)c(Nc4ccc(C(=O)Nc5ccccc5Cl)cc4)n3)cc2)CC1", "note": "(stereo partly drawn) [Compound 66, N-(2-chlorophenyl)-4-[[2-[4-[[4-[[1-[4-[(2,6-dioxo-3-piperidyl)amino]-2-fluoro-phenyl]-4-piperidyl]methyl-methyl-amino]cyclohexyl]carbamoyl]anilino]-5-fluoro-pyrimidin-4-yl]amino]benzamide]", "values": [{"measurement": "luminescence value (Level)", "setting": "Aurora kinase A (AURKA); 10 nM compound", "result": "A (A is <0.3)"}, {"measurement": "luminescence value (Level)", "setting": "Aurora kinase A (AURKA); 100 nM compound", "result": "A (A is <0.2)"}, {"measurement": "pIC50", "setting": "NCI-H446 cell line", "result": "> 7.30"}]}
{"smiles": "CC(CN1CCN(c2ccc(C3CCC(=O)NC3=O)cc2)CC1)N1CCC(NC(=O)c2ccc(Nc3ncc(F)c(Nc4ccc(C(=O)Nc5ccccc5Cl)cc4)n3)cc2)CC1", "note": "(stereo not drawn) [Compound 67, N-(2-chlorophenyl)-4-((2-((4-((1-(1-(4-(4-(2,6-dioxopiperidin-3-yl)phenyl)piperazin-1-yl)propan-2-yl)piperidin-4-yl)carbamoyl)phenyl)amino)-5-fluoropyrimidin-4-yl)amino)benzamide]", "values": [{"measurement": "luminescence value (Level)", "setting": "Aurora kinase A (AURKA); 10 nM compound", "result": "B (B is 0.3 to 0.5)"}, {"measurement": "luminescence value (Level)", "setting": "Aurora kinase A (AURKA); 100 nM compound", "result": "A (A is <0.2)"}, {"measurement": "pIC50", "setting": "NCI-H446 cell line", "result": "6.82 to 7.00"}]}
{"smiles": "CN(CC1CCN(c2ccc(NC3CCC(=O)NC3=O)cc2)CC1)[C@H]1CC[C@H](NC(=O)c2ccc(Nc3ncc(F)c(Nc4ccc(C(=O)Nc5ccccc5Cl)cc4)n3)cc2)CC1", "note": "(stereo partly drawn) [Compound 69, N-(2-chlorophenyl)-4-((2-((4-(((1r,4r)-4-(((1-(4-((2,6-dioxopiperidin-3-yl)amino)phenyl)piperidin-4-yl)methyl)(methyl)amino)cyclohexyl)carbamoyl)phenyl)amino)-5-fluoropyrimidin-4-yl)amino)benzamide]", "values": [{"measurement": "luminescence value (Level)", "setting": "Aurora kinase A (AURKA); 10 nM compound", "result": "A (A is <0.3)"}, {"measurement": "luminescence value (Level)", "setting": "Aurora kinase A (AURKA); 100 nM compound", "result": "A (A is <0.2)"}, {"measurement": "pIC50", "setting": "NCI-H446 cell line", "result": "7.00 to 7.30"}]}
{"smiles": "O=C1CCC(c2ccc(N3CCN(CCN4CCC(C(=O)Nc5ccc(Nc6ncc(F)c(Nc7ccc(C(=O)Nc8ccccc8Cl)cc7)n6)cc5)CC4)CC3)cc2)C(=O)N1", "note": "(stereo not drawn) [Compound 70, N-(4-((4-((4-((2-chlorophenyl)carbamoyl)phenyl)amino)-5-fluoropyrimidin-2-yl)amino)phenyl)-1-(2-(4-(4-(2,6-dioxopiperidin-3-yl)phenyl)piperazin-1-yl)ethyl)piperidine-4-carboxamide]", "values": [{"measurement": "luminescence value (Level)", "setting": "Aurora kinase A (AURKA); 10 nM compound", "result": "A (A is <0.3)"}, {"measurement": "luminescence value (Level)", "setting": "Aurora kinase A (AURKA); 100 nM compound", "result": "A (A is <0.2)"}, {"measurement": "pIC50", "setting": "NCI-H446 cell line", "result": "7.00 to 7.30"}]}
{"smiles": "O=C1CCC(c2ccc(N3CCN(CCCN4CCC(NC(=O)c5ccc(Nc6ncc(F)c(Nc7ccc(C(=O)Nc8ccccc8Cl)cc7)n6)cc5)CC4)CC3)cc2)C(=O)N1", "note": "(stereo not drawn) [Compound 71, N-(2-chlorophenyl)-4-((2-((4-((1-(3-(4-(4-(2,6-dioxopiperidin-3-yl)phenyl)piperazin-1-yl)propyl)piperidin-4-yl)carbamoyl)phenyl)amino)-5-fluoropyrimidin-4-yl)amino)benzamide]", "values": [{"measurement": "luminescence value (Level)", "setting": "Aurora kinase A (AURKA); 10 nM compound", "result": "A (A is <0.3)"}, {"measurement": "luminescence value (Level)", "setting": "Aurora kinase A (AURKA); 100 nM compound", "result": "A (A is <0.2)"}, {"measurement": "pIC50", "setting": "NCI-H446 cell line", "result": "6.82 to 7.00"}]}
{"smiles": "CCC(CN1CCN(c2ccc(C3CCC(=O)NC3=O)cc2)CC1)C1CCN(NC(=O)c2ccc(Nc3ncc(F)c(Nc4ccc(C(=O)Nc5ccccc5Cl)cc4)n3)cc2)CC1", "note": "(stereo not drawn) [Compound 72, N-(2-chlorophenyl)-4-((2-((4-((4-(1-(4-(4-(2,6-dioxopiperidin-3-yl)phenyl)piperazin-1-yl)butan-2-yl)piperidin-1-yl)carbamoyl)phenyl)amino)-5-fluoropyrimidin-4-yl)amino)benzamide]", "values": [{"measurement": "luminescence value (Level)", "setting": "Aurora kinase A (AURKA); 10 nM compound", "result": "B (B is 0.3 to 0.5)"}, {"measurement": "luminescence value (Level)", "setting": "Aurora kinase A (AURKA); 100 nM compound", "result": "A (A is <0.2)"}, {"measurement": "pIC50", "setting": "NCI-H446 cell line", "result": "> 7.30"}]}
{"smiles": "O=C1CCC(Nc2ccc(N3CCN(CCN4CCC(NC(=O)c5ccc(Nc6ncc(F)c(Nc7ccc(C(=O)Nc8ccccc8Cl)cc7)n6)cc5)CC4)CC3)cc2)C(=O)N1", "note": "(stereo not drawn) [Compound 73, N-(2-chlorophenyl)-4-((2-((4-((1-(2-(4-(4-((2,6-dioxopiperidin-3-yl)amino)phenyl)piperazin-1-yl)ethyl)piperidin-4-yl)carbamoyl)phenyl)amino)-5-fluoropyrimidin-4-yl)amino)benzamide]", "values": [{"measurement": "luminescence value (Level)", "setting": "Aurora kinase A (AURKA); 10 nM compound", "result": "A (A is <0.3)"}, {"measurement": "luminescence value (Level)", "setting": "Aurora kinase A (AURKA); 100 nM compound", "result": "A (A is <0.2)"}, {"measurement": "pIC50", "setting": "NCI-H446 cell line", "result": "6.82 to 7.00"}]}
{"smiles": "O=C1CCC(c2ccc(N3CCN(CC[C@H]4CC[C@H](NC(=O)c5ccc(Nc6ncc(F)c(Nc7ccc(C(=O)Nc8ccccc8Cl)cc7)n6)cc5)CC4)CC3)c(F)c2)C(=O)N1", "note": "(stereo partly drawn) [Compound 74, N-(2-chlorophenyl)-4-((2-((4-(((1r,4r)-4-(2-(4-(4-(2,6-dioxopiperidin-3-yl)-2-fluorophenyl)piperazin-1-yl)ethyl)cyclohexyl)carbamoyl)phenyl)amino)-5-fluoropyrimidin-4-yl)amino)benzamide]", "values": [{"measurement": "luminescence value (Level)", "setting": "Aurora kinase A (AURKA); 10 nM compound", "result": "B (B is 0.3 to 0.5)"}, {"measurement": "luminescence value (Level)", "setting": "Aurora kinase A (AURKA); 100 nM compound", "result": "A (A is <0.2)"}, {"measurement": "pIC50", "setting": "NCI-H446 cell line", "result": "> 7.30"}]}
{"smiles": "CN(CCN1CCN(c2ccc(C3CCC(=O)NC3=O)cc2)CC1)[C@H]1CC[C@H](NC(=O)c2ccc(Nc3ncc(F)c(Nc4ccc(C(=O)Nc5ccccc5Cl)cc4)n3)cc2)CC1", "note": "(stereo partly drawn) [Compound 75, N-(2-chlorophenyl)-4-((2-((4-(((1r,4r)-4-((2-(4-(4-(2,6-dioxopiperidin-3-yl)phenyl)piperazin-1-yl)ethyl)(methyl)amino)cyclohexyl)carbamoyl)phenyl)amino)-5-fluoropyrimidin-4-yl)amino)benzamide]", "values": [{"measurement": "luminescence value (Level)", "setting": "Aurora kinase A (AURKA); 10 nM compound", "result": "A (A is <0.3)"}, {"measurement": "luminescence value (Level)", "setting": "Aurora kinase A (AURKA); 100 nM compound", "result": "A (A is <0.2)"}, {"measurement": "pIC50", "setting": "NCI-H446 cell line", "result": "7.00 to 7.30"}]}
